Experimental data reported in PMC6204753, “Non-native autoinducer analogs capable of modulating the SdiA quorum sensing receptor in Salmonella enterica serovar Typhimurium” (Beilstein Journal of Organic Chemistry, 2018).

Biological target: SdiA (Salmonella enterica subsp. enterica serovar Typhimurium, UniProt O66040)
Assay: S. Typhimurium-pJNS25 SdiA reporter, competitive antagonism against 10 nM L-OOHL
Type: cell-based
Settings: average ± STD, change in activity from 10 nM 2 (OOHL); for Antagonism 1 μM Inhibition (%): 1 μM compound; for Antagonism 100 μM Inhibition (%): 100 μM compound
Source text: Biological assays for SdiA activity. Cell-based reporter strains that rely on detecting the transcriptional activity of LuxR-type receptors are commonly used to assess the activity of exogenous ligands. We used the S. Typhimurium-pJNS25 reporter strain constructed by Smith and Ahmer and also used by Janssens et al. to examine SdiA activity. This strain naturally produces SdiA and contains a reporter plasmid with the promoter region for srgE fused to the luxABCDE operon of V. fischeri (see Experimental section for details of all strains and plasmids). SdiA activity is thus reported by the production of luciferase and resulting bioluminescence. We also prepared an SdiA reporter in E. coli (JLD271-pJN105SE-pSC11SE) to examine S. Typhimurium SdiA activity in an alternate background and with a different reporter gene output. […] This reporter construct uses an arabinose inducible promoter to produce S. Typhimurium SdiA and the promoter region for srgE fused to lacZ to report SdiA activity. SdiA activity is then measured using standard β-galactosidase assays. In both reporter strains, signal was normalized to the difference between the positive control (10 μM OOHL) and the negative control (1% DMSO; no compound).
Salmonella SdiA reporter assay. S. Typhimurium-pJNS25 was grown 16–18 h overnight in LB, diluted 1:100 in fresh LB medium, and then incubated for 6 h at 37 °C with shaking at 200 rpm in the presence of compounds (1% DMSO). […] All compounds were screened at 100 μM and 1 μM in triplicate in agonism and antagonism assays. […] Dose–response analyses were performed by preparing dilutions of compounds in DMSO and testing each concentration in the agonism or antagonism assays. Competition dose–response assays (data in Figure 5) were performed in the same manner as the antagonism assays, except instead of OOHL being added to the subculture, the antagonist being tested was added. Non-linear regression curve fits were generated using GraphPad Prism software (version 6) using variable slope (four parameter) dose–response analysis.

SdiA, sequence (O66040 entry or part of it): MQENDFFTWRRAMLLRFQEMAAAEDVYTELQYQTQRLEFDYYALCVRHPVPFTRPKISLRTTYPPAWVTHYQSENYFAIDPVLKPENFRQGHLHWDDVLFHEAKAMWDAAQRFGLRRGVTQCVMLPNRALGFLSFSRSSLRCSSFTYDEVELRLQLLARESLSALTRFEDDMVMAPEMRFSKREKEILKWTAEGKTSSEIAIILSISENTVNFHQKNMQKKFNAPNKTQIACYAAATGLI

Row | Compound | Antagonism 1 μM Inhibition (%) | Antagonism 100 μM Inhibition (%)
1 | O=C(Cc1cc(C(F)(F)F)cc(C(F)(F)F)c1)N[C@H]1CCOC1=O [E9] | 18 ± 8% | 21 ± 8%
2 | Cc1ccc(C(=O)CCC(=O)N[C@H]2CCOC2=O)cc1 [D6] | 21 ± 19% | 3 ± 12%
3 | CCCCCCCCCCCCCC(=O)CC(=O)N[C@H]1CCOC1=O [H25] | 1 ± 13% | -9 ± 15%
4 | O=C(Cc1ccccc1)N[C@H]1CCOC1=O [C1] | 9 ± 12% | -6 ± 5%
5 | O=C(CCCc1ccccc1)N[C@H]1CCOC1=O [compound 6, reference compound] | 31 ± 6% | 21 ± 10%
6 | O=C(CCc1c[nH]c2ccccc12)N[C@H]1CCOC1=O [B14] | 10 ± 2% | 18 ± 5%
7 | CCCC(=O)CC(=O)N[C@H]1CCOC1=O [compound 3, reference compound] | 6 ± 16% | 20 ± 2%
8 | CC(C)(C)OC(=O)Nc1ccc(CC(=O)N[C@H]2CCOC2=O)cc1 [C22] | -9 ± 2% | 6 ± 6%
9 | CCCCCC(O)CC(=O)N[C@H]1CCOC1=O (stereo partly shown) [H2] | 8 ± 5% | 12 ± 16%
10 | CCCCCOc1ccc(C(=O)N[C@H]2CCOC2=O)cc1 [R5] | 10 ± 18% | -1 ± 9%
11 | O=C(CCCc1ccccc1)NC1CCOC1=O (stereo not shown) [B3] | 34 ± 5% | 16 ± 3%
12 | O=C(N[C@H]1CCOC1=O)C1CCCC1 [S4] | 27 ± 11% | -8 ± 11%
13 | CC(C)Oc1ccc(C(=O)N[C@H]2CCOC2=O)cc1 [R3] | 23 ± 8% | 11 ± 10%
14 | O=C(Cc1ccc([N+](=O)[O-])cc1)N[C@H]1CCOC1=O [C13] | 24 ± 4% | 14 ± 9%
15 | O=C(N[C@H]1CCOC1=O)c1ccc(Br)cc1 [B6] | 25 ± 11% | -14 ± 17%
16 | O=C(Cc1ccccc1I)N[C@H]1CCOC1=O [C12] | 9 ± 13% | -24 ± 12%
17 | O=C(CCCc1c[nH]c2ccccc12)N[C@@H]1CCOC1=O [B5] | 30 ± 15% | -8 ± 5%
18 | O=C(Cc1cccc([N+](=O)[O-])c1)NCc1cccc([N+](=O)[O-])c1 [F55] | 11 ± 4% | 26 ± 7%
19 | O=C(Cc1ccc2ccccc2c1)N[C@H]1CCOC1=O [E12] | -13 ± 9% | 0 ± 15%
20 | COc1ccc(C(=O)N[C@H]2CCOC2=O)cc1 [Q6] | 26 ± 18% | -6 ± 14%

Row | Compound | Antagonism 1 μM Inhibition (%) | Antagonism 100 μM Inhibition (%)
21 | O=C(CCc1cccs1)N[C@H]1CCOC1=O [D3] | 10 ± 2% | 6 ± 9%
22 | Nc1ccc(CC(=O)N[C@H]2CCOC2=O)cc1 [C21] | 4 ± 12% | 13 ± 4%
23 | O=C(N[C@H]1CCOC1=O)c1ccc(Cl)cc1 [Q4] | 30 ± 4% | -25 ± 15%
24 | O=C(N[C@H]1CCOC1=O)c1ccc([N+](=O)[O-])cc1 [Q7] | 28 ± 7% | 20 ± 9%
25 | CCOc1ccc(C(=O)N[C@H]2CCOC2=O)cc1 [R1] | 22 ± 6% | 13 ± 8%
26 | Cc1ccc(C(=O)N[C@H]2CCOC2=O)cc1 [Q8] | 17 ± 3% | 11 ± 3%
27 | CCCCOc1ccc(C(=O)N[C@H]2CCOC2=O)cc1 [R4] | 23 ± 9% | 11 ± 12%
28 | CCCCCCCCCC(=O)CC(=O)N[C@H]1CCOC1=O [compound 1, reference compound] | 2 ± 17% | 15 ± 16%
29 | CCCCCCCCCC(=O)CC(=O)NC1CCCCC1=O (stereo not shown) [compound 15, reference compound] | 16 ± 16% | 13 ± 8%
30 | COc1cc(C(C)=O)ccc1OCC(=O)N[C@H]1CCOC1=O [D16] | 19 ± 6% | 3 ± 6%
31 | COc1ccccc1C1CCN(c2ccc(/C=C/C(=O)N[C@H]3CCOC3=O)cc2[N+](=O)[O-])CC1 [D18] | 18 ± 8% | 32 ± 5%
32 | O=C(Cc1cccc(F)c1)N[C@H]1CCOC1=O [C3] | -1 ± 15% | -18 ± 12%
33 | CCCCCCCCCCCC(=O)N[C@H]1CCSC1=O [F4] | -2 ± 11% | 2 ± 5%
34 | O=C(Cc1cccc([N+](=O)[O-])c1)Nc1ccccc1 [F25] | 20 ± 4% | -2 ± 14%
35 | CCCCCCCCCC(=O)N[C@H]1CCOC1=O [A4] | 12 ± 19% | 18 ± 7%
36 | O=C(Cc1ccc(F)cc1)N[C@H]1CCOC1=O [C2] | 2 ± 8% | -8 ± 18%
37 | O=C(N[C@H]1CCOC1=O)c1cnn(-c2ccccc2)c1C(F)(F)F [D9] | 26 ± 6% | 9 ± 1%
38 | O=C(Cc1ccc(Br)cc1)N[C@H]1CCSC1=O [F10] | 8 ± 12% | -3 ± 7%
39 | O=C(N[C@H]1CCOC1=O)C1CCCCC1 [S5] | 19 ± 4% | 13 ± 10%
40 | O=C(Cc1ccc(O)cc1)N[C@H]1CCOC1=O [C23] | 6 ± 2% | 16 ± 3%

Row | Compound | Antagonism 1 μM Inhibition (%) | Antagonism 100 μM Inhibition (%)
41 | O=C(CC(=O)N[C@H]1CCOC1=O)Cc1ccccc1 [compound 5, reference compound] | 23 ± 9% | 17 ± 3%
42 | O=C(CCc1ccc(I)cc1)N[C@H]1CCOC1=O [E32] | 19 ± 14% | 24 ± 13%
43 | O=C(Cc1c[nH]c2ccccc12)N[C@H]1CCOC1=O [B13] | 8 ± 10% | 13 ± 13%
44 | O=C(CCc1ccc(Br)cc1)N[C@H]1CCOC1=O [compound 8, reference compound] | 15 ± 8% | 4 ± 3%
45 | O=C(Cc1ccccc1F)N[C@H]1CCOC1=O [C4] | 3 ± 6% | -31 ± 10%
46 | [N-]=[N+]=Nc1ccc(CC(=O)N[C@H]2CCOC2=O)cc1 [C17] | 13 ± 11% | 9 ± 6%
47 | O=C(Cc1ccc(C(F)(F)F)cc1)N[C@H]1CCOC1=O [C20] | 15 ± 10% | 8 ± 6%
48 | O=C(CCc1ccccc1)N[C@H]1CCOC1=O [B9] | 13 ± 10% | 18 ± 14%
49 | O=C(N[C@H]1CCOC1=O)c1cccc(Br)c1 [Q2] | 17 ± 2% | 9 ± 13%
50 | COc1ccc(CCC(=O)N[C@H]2CCOC2=O)cc1 [E28] | 11 ± 18% | 6 ± 15%
51 | CCOc1ccc(CC(=O)N[C@H]2CCOC2=O)cc1 [C25] | 12 ± 8% | 7 ± 5%
52 | O=C(COc1cccc([N+](=O)[O-])c1)N[C@H]1CCOC1=O [E25] | 5 ± 18% | 9 ± 12%
53 | O=C(Cc1cccc(C(F)(F)F)c1)N[C@H]1CCOC1=O [E3] | -14 ± 16% | 5 ± 8%
54 | O=C(CCc1ccc2c(c1)OCO2)N[C@H]1CCOC1=O [E39] | 10 ± 15% | 12 ± 3%
55 | O=C(CCc1cccc(Br)c1)N[C@H]1CCOC1=O [E31] | 13 ± 10% | 6 ± 6%
56 | O=C(N[C@H]1CCOC1=O)c1ccccc1 [B8] | 26 ± 3% | -13 ± 11%
57 | O=C(Cc1ccc(Br)cc1)N[C@H]1CCOC1=O [compound 7, reference compound] | 26 ± 9% | 21 ± 10%
58 | CCCCCCCCCC(=O)NC1CCCC1 [compound 17, reference compound] | 26 ± 12% | 28 ± 5%
59 | O=C(Cc1ccccc1Cl)N[C@H]1CCOC1=O [C7] | 22 ± 6% | -32 ± 5%
